Measured values published in US20250170140A1, “PHARMACEUTICAL COMPOSITION FOR PREVENTING OR TREATING CANCER COMPRISING CARNITINE ACYLCARNITINE CARRIER INHIBITOR AND PEROXISOMAL BETA OXIDATION INHIBITOR” (priority 2021, published 2025).
Where two headings read alike, the source gives them in different places.

Columns and labels:
Format in all cases: cell-based
SK-MEL-5 = test: SRB assay, melanoma cell line SK-MEL-5
Procedure: (§1) As a comparison, omeprazole (KN510) and trimetazidine (KN713), a 3-ketoacyl CoA thiolase inhibitor, were co-treated. […] After cell inoculation, 96-well cell culture plates were incubated for 24 hours before the addition of experimental drugs. […] The cells were then incubated in a CO2 incubator for 48 hours, after which the assay was terminated by the addition of cold TCA. Cells were fixed in situ by gently adding 50 μl of cold 50% (w/v) TCA (final concentration: 10% TCA) and incubated at 4° C. for 60 min. The supernatant was discarded, and the plate was washed five times with distilled water and air dried. Sulforhodamine B (SRB) solution (100 μl) of 0.4% (w/v) in 1% acetic acid was added to each well, and the plate was left at room temperature for 10 min. After staining, unbound dye was removed by washing five times with 1% acetic acid, and the plate was air-dried. The bound dye was then solubilized with 10 mM trizma base, and the absorbance was recorded at 515 nm using an automated plate reader. […] The predicted synergistic activity of a combination of the present invention can be calculated using the Colby Equation in Equation 1 (S.R. Colby, Weeds, 1967, pp. 15, 20-22): In the present invention, the actual measure of anti-cancer activity of the combination treatment was the inhibition rate of cancer cell growth (%), and the predicted value (E) of the combination treatment was measured by substituting it into the above Colby Equation.

U251 cells = test: SRB assay, glioblastoma cell line U251
Procedure: as §1

MIA PaCa-2 = test: SRB assay, cancer cell growth, pancreatic cancer cell line MIA PaCa-2; conditions: for inhibition at 5 µM / inhibition at 10 µM: read-out: Inhibition rate of cancer cell growth (%) (Actual value)
Procedure: as §1, with “20-22): α and β are the measured anti-cancer activity of each compound alone, and E is the predicted anti-cancer activity of a mixture of α and β as a prediction.” for “20-22):”

Hep-3B cells = test: SRB assay, liver cancer cell line Hep-3B
Procedure: as §1

UACC-62 cells = test: SRB assay, melanoma cell line UACC-62
Procedure: as §1

PANC-1 cells = test: SRB assay, pancreatic cancer cell line PANC-1
Procedure: as §1

MDA-MB-231 cells = test: SRB assay, breast cancer cell line MDA-MB-231
Procedure: as §1

ACHN cells = test: SRB assay, renal cell carcinoma cell line ACHN
Procedure: as §1

OVCAR-8 cells = test: SRB assay, ovarian cancer cells OVCAR-8
Procedure: as §1

SK-OV-3 cells = test: SRB assay, ovarian cancer cells SK-OV-3
Procedure: as §1

PC-3 cells = test: SRB assay, prostate cancer cells PC-3
Procedure: as §1

K562 cells = test: SRB assay, leukemia cell line K562
Procedure: as §1

H1975 cells = test: SRB assay, lung cancer cells H1975
Procedure: as §1

[1] = Homo sapiens, KN714 5 μM, read-out: Inhibition rate of cancer cell growth (%) (Actual value)
[2] = Homo sapiens, KN714 10 μM, read-out: Inhibition rate of cancer cell growth (%) (Actual value)

CSc1ccc2c(c1)N(CCC1CCCCN1C)c1ccccc1S2 (stereo not drawn) [KN714, 10-[2-(1-methyl-2-piperidyl)ethyl]-2-(methylthio)phenothiazine]
inhibition at 5 µM (SK-MEL-5; [1]): 19.3% | inhibition at 10 µM (SK-MEL-5; [2]): 124% | Cancer cell growth rate Average (%) (SK-MEL-5; KN714 5 μM): 80.69% | Cancer cell growth rate Average (%) (SK-MEL-5; KN714 10 μM): −23.56% | inhibition at 5 µM (U251 cells; Homo sapiens, U-251, KN714 5 μM, read-out: Inhibition rate of cancer cell growth (%) (Actual value)): 40% | inhibition at 10 µM (U251 cells; Homo sapiens, U-251, KN714 10 μM, read-out: Inhibition rate of cancer cell growth (%) (Actual value)): 121% | Cancer cell growth rate Average (%) (U251 cells; KN714 5 μM): 59.99% | Cancer cell growth rate Average (%) (U251 cells; KN714 10 μM): −20.54% | inhibition at 5 µM (MIA PaCa-2; Homo sapiens, MIA PaCa-2, MIA PaCa-2 (Example 11), KN714 5 μM): 23.4% | inhibition at 10 µM (MIA PaCa-2; Homo sapiens, MIA PaCa-2, MIA PaCa-2 (Example 11), KN714 10 μM): 106% | inhibition at 5 µM (MIA PaCa-2; Homo sapiens, MIA PaCa-2, MIA PaCa-2, Example 1-3, Table 4, KN714 5 μM): 31.4% | inhibition at 10 µM (MIA PaCa-2; Homo sapiens, MIA PaCa-2, MIA PaCa-2, Example 1-3, Table 4, KN714 10 μM): 105% | GI50 (MIA PaCa-2; Homo sapiens, MIA PaCa-2, 48 hours, read-out: GI50 (Half maximal growth inhibition concentration)): 1900 nM | Cancer cell growth rate Average (%) (MIA PaCa-2; MIA PaCa-2 (Example 11), KN714 5 μM): 76.62% | Cancer cell growth rate Average (%) (MIA PaCa-2; MIA PaCa-2 (Example 11), KN714 10 μM): −5.93% | Cancer cell growth rate Average (%) (MIA PaCa-2; MIA PaCa-2, Conc. 10^−5M, Table 1): −10.55% | Cancer cell growth rate Average (%) (MIA PaCa-2; MIA PaCa-2, Conc. 10^−6M, Table 1): 94.73% | Cancer cell growth rate Average (%) (MIA PaCa-2; MIA PaCa-2, Conc. 10^−7M, Table 1): 95.13% | Cancer cell growth rate Average (%) (MIA PaCa-2; MIA PaCa-2, Conc. 10^−8M, Table 1): 90.56% | Cancer cell growth rate Average (%) (MIA PaCa-2; MIA PaCa-2, Conc. 10^−9M, Table 1): 97.03% | Cancer cell growth rate Average (%) (MIA PaCa-2; MIA PaCa-2, Conc. 10^−10M, Table 1): 97.11% | Cancer cell growth rate Average (%) (MIA PaCa-2; MIA PaCa-2, Example 1-2, Table 2, KN714 5 μM): 68.62% | Cancer cell growth rate Average (%) (MIA PaCa-2; MIA PaCa-2, Example 1-2, Table 2, KN714 10 μM): −5.25% | inhibition at 5 µM (Hep-3B cells; Homo sapiens, Hep3B, KN714 5 μM, read-out: Inhibition rate of cancer cell growth (%) (Actual value)): 6.06% | inhibition at 10 µM (Hep-3B cells; Homo sapiens, Hep3B, KN714 10 μM, read-out: Inhibition rate of cancer cell growth (%) (Actual value)): 29.9% | Cancer cell growth rate Average (%) (Hep-3B cells; KN714 5 μM): 93.94% | Cancer cell growth rate Average (%) (Hep-3B cells; KN714 10 μM): 70.15% | inhibition at 5 µM (UACC-62 cells; [1]): 10.6% | inhibition at 10 µM (UACC-62 cells; [2]): 60.5% | Cancer cell growth rate Average (%) (UACC-62 cells; KN714 5 μM): 89.43% | Cancer cell growth rate Average (%) (UACC-62 cells; KN714 10 μM): 39.54% | inhibition at 5 µM (PANC-1 cells; [1]): 10.2% | inhibition at 10 µM (PANC-1 cells; [2]): 70% | Cancer cell growth rate Average (%) (PANC-1 cells; KN714 5 μM): 89.85% | Cancer cell growth rate Average (%) (PANC-1 cells; KN714 10 μM): 30.04% | inhibition at 5 µM (MDA-MB-231 cells; [1]): 9.36% | inhibition at 10 µM (MDA-MB-231 cells; [2]): 29.8% | Cancer cell growth rate Average (%) (MDA-MB-231 cells; KN714 5 μM): 90.64% | Cancer cell growth rate Average (%) (MDA-MB-231 cells; KN714 10 μM): 70.20% | inhibition at 5 µM (ACHN cells; [1]): -2.76% | inhibition at 10 µM (ACHN cells; [2]): 29.6% | Cancer cell growth rate Average (%) (ACHN cells; KN714 5 μM): 102.76% | Cancer cell growth rate Average (%) (ACHN cells; KN714 10 μM): 70.39% | inhibition at 5 µM (OVCAR-8 cells; [1]): 6.92% | inhibition at 10 µM (OVCAR-8 cells; [2]): 55.1% | Cancer cell growth rate Average (%) (OVCAR-8 cells; KN714 5 μM): 93.08% | Cancer cell growth rate Average (%) (OVCAR-8 cells; KN714 10 μM): 44.89% | inhibition at 5 µM (SK-OV-3 cells; [1]): 7.82% | inhibition at 10 µM (SK-OV-3 cells; [2]): 37.6% | Cancer cell growth rate Average (%) (SK-OV-3 cells; KN714 5 μM): 92.18% | Cancer cell growth rate Average (%) (SK-OV-3 cells; KN714 10 μM): 62.36% | inhibition at 5 µM (PC-3 cells; [1]): 18.1% | inhibition at 10 µM (PC-3 cells; [2]): 53% | Cancer cell growth rate Average (%) (PC-3 cells; KN714 5 μM): 81.94% | Cancer cell growth rate Average (%) (PC-3 cells; KN714 10 μM): 47.00% | inhibition at 5 µM (K562 cells; [1]): 57.8% | inhibition at 10 µM (K562 cells; [2]): 102% | Cancer cell growth rate Average (%) (K562 cells; KN714 5 μM): 42.25% | Cancer cell growth rate Average (%) (K562 cells; KN714 10 μM): −1.56% | inhibition at 5 µM (H1975 cells; Homo sapiens, NCI-H1975, KN714 5 μM, read-out: Inhibition rate of cancer cell growth (%) (Actual value)): -13.9% | inhibition at 10 µM (H1975 cells; Homo sapiens, NCI-H1975, KN714 10 μM, read-out: Inhibition rate of cancer cell growth (%) (Actual value)): 8.1% | Cancer cell growth rate Average (%) (H1975 cells; KN714 5 μM): 113.89% | Cancer cell growth rate Average (%) (H1975 cells; KN714 10 μM): 91.90%
